Reference: publication PMC8248988, “A signal capture and proofreading mechanism for the KDEL-receptor explains selectivity and dynamic range in ER retrieval” (eLife, 2021)

Test system: endogenous KDEL receptor in COS-7 cells
Experiment: ER retrieval assay, endogenous KDEL receptor redistribution
Type: cell-based, African green monkey
Excerpt: Figure 1. ER retrieval signal abundance and affinity are not correlated. (a) Sequence logos for ER resident proteins with C-terminal KDEL retrieval signals and variants thereof calculated using frequency or protein abundance ([Itzhak et al., 2017]; [Itzhak et al., 2016]). (b) Combined cellular concentrations of ER resident proteins with canonical KDEL, RDEL, and HDEL retrieval sequences in HeLa cells and mouse brain. (c) Competition binding assays for [^3H]-TAEHDEL and unlabelled TAEKDEL, TAERDEL, and TAEHDEL to the KDEL receptor. IC50 values for the competing peptides were used to calculate the apparent KDwith the Cheng-Prusoff equation ([Cheng and Prusoff, 1973]). (d) Endogenous KDEL receptor redistribution was measured in COS-7 cells in the absence (-ligand) or presence of K/R/H/A/DDEL (mScarlet-xDEL^sec). TGN46 was used as a Golgi marker. Scale bar is 10 µm. (e) The mean difference for K/R/H/A/DDEL comparisons against the shared no ligand control are shown as Cummings estimation plots. The individual data points for the fraction of KDEL receptor fluorescence in the Golgi are plotted on the upper axes with sample sizes and p values. Figure 1—source data 1. Source data for the ligand-induced KDELR receptor retrieval assays in Figure 1e. Figure 1—figure supplement 1. […] Endogenous ER chaperone secretion was measured by western blotting after challenge with different retrieval signals, and plotted as a bar graph showing mean ± SEM (n = 3). […] (a) Distribution of human KDELR1 and (b) KDELR2 was measured in COS-7 cells in the absence (-ligand) or presence of K/R/H/A/DDEL retrieval signals (K/R/H/A/DDEL^sec). […] The fraction of KDEL receptor localised to the Golgi was measured before (no ligand) and after challenge with different retrieval signals as indicated. […]
To create KDELR1-GFP and KDELR2-GFP, the reading frames for Homo sapiens KDELR1 (Uniprot: P24390) and KDELR2 (Uniprot: P33947) were cloned into the pEF5/FRT low level mammalian expression vector with a C-terminal 20 amino acid linker made up of 5 copies of Gly-Ser-Ser-Ser followed by GFP. […]

**Q.** What does the source list for “ADEL [pcDNA3.1 hGHss-mScarlet-H. sapiens BiP639-654K651A (ADEL^SEC), secreted mScarlet fusion with human BiP C-terminus, ADEL signal]”?
**A.** localisation of the mScarlet ligand (in words) (COS-7 cells): predominantly Golgi and punctate localisation consistent with secretion; endogenous KDEL receptor redistribution from Golgi to ER (in words) (COS-7 cells expressing mScarlet-xDEL^sec): little effect on the Golgi-ER distribution of the receptor
